In the NIST ThermoML archive (doi:10.1021/je4004806):
± gives the expanded uncertainty stated by the source.

Columns and labels:
[1] = 101 kPa, Liquid; for viscosity: Capillary tube (Ostwald / Ubbelohde) method; for mass density: Vibrating tube method
[2] = xn = mol fraction of the nth substance listed; conditions: 101 kPa, Liquid; for viscosity: Capillary tube (Ostwald / Ubbelohde) method; for mass density: Vibrating tube method

CCCCO [butan-1-ol]
[1]
Conditions | mass density [kg/m3] | viscosity [mPa·s]
293.15 K | 809.53 ± 0.12 | 2.968 ± 0.017
298.15 K | 805.7 ± 0.12 | 2.602 ± 0.016
303.15 K | 801.86 ± 0.12 | 2.292 ± 0.015
308.15 K | 797.99 ± 0.12 | 2.025 ± 0.013
313.15 K | 794.1 ± 0.12 | 1.796 ± 0.013
318.15 K | 790.18 ± 0.12 | 1.59 ± 0.012
323.15 K | 786.21 ± 0.13 | 1.414 ± 0.011

CCCCO [butan-1-ol] + CCCCCCCC
[2], x2 = 0
Conditions | mass density [kg/m3] | viscosity [mPa·s]
293.15 K | 809.53 ± 0.12 | 2.968 ± 0.017
298.15 K | 805.7 ± 0.12 | 2.602 ± 0.016
303.15 K | 801.86 ± 0.12 | 2.292 ± 0.015
308.15 K | 797.99 ± 0.12 | 2.025 ± 0.013
313.15 K | 794.1 ± 0.12 | 1.796 ± 0.013
318.15 K | 790.18 ± 0.12 | 1.59 ± 0.012
323.15 K | 786.21 ± 0.13 | 1.414 ± 0.011

CCO [ethanol]
[1]
Conditions | mass density [kg/m3]
293.15 K | 790.91 ± 0.12
298.15 K | 786.6 ± 0.12
303.15 K | 782.28 ± 0.12
308.15 K | 777.94 ± 0.13
313.15 K | 773.56 ± 0.13
318.15 K | 769.15 ± 0.13
323.15 K | 764.69 ± 0.13

CCO [ethanol] + CCCCCCCC
[2], x2 = 0
Conditions | mass density [kg/m3]
293.15 K | 790.91 ± 0.12
298.15 K | 786.6 ± 0.12
303.15 K | 782.28 ± 0.12
308.15 K | 777.94 ± 0.13
313.15 K | 773.56 ± 0.13
318.15 K | 769.15 ± 0.13
323.15 K | 764.69 ± 0.13

CCCCCCCC [octane]
[1]
Conditions | mass density [kg/m3] | viscosity [mPa·s]
293.15 K | 702.54 ± 0.15 | 0.545 ± 0.009
298.15 K | 698.49 ± 0.15 | 0.513 ± 0.009
303.15 K | 694.44 ± 0.16 | 0.485 ± 0.009
308.15 K | 690.37 ± 0.16 | 0.459 ± 0.009
313.15 K | 686.29 ± 0.16 | 0.433 ± 0.009
318.15 K | 682.19 ± 0.16 | 0.412 ± 0.008
323.15 K | 678.08 ± 0.16 | 0.392 ± 0.008

CCCCCCCC [octane] + CCCCCO
[2], x1 = 1
Conditions | mass density [kg/m3] | viscosity [mPa·s]
293.15 K | 702.54 ± 0.15 | 0.545 ± 0.009
298.15 K | 698.49 ± 0.15 | 0.513 ± 0.009
303.15 K | 694.44 ± 0.16 | 0.485 ± 0.009
308.15 K | 690.37 ± 0.16 | 0.459 ± 0.009
313.15 K | 686.29 ± 0.16 | 0.433 ± 0.009
318.15 K | 682.19 ± 0.16 | 0.412 ± 0.008
323.15 K | 678.08 ± 0.16 | 0.392 ± 0.008

CCCCCCCC [octane] + CCO
mass density [kg/m3], [2]
Conditions | x1 = 0.1008 | x1 = 0.2015 | x1 = 0.2998 | x1 = 0.4008 | x1 = 0.4663 | x1 = 0.6008 | x1 = 0.6991 | x1 = 0.7931 | x1 = 0.9031 | x1 = 1
293.15 K | 766.88 ± 0.81 | 750.57 ± 0.58 | 738.83 ± 0.44 | 729.83 ± 0.36 | 724.97 ± 0.3 | 716.77 ± 0.27 | 712.03 ± 0.23 | 708.31 ± 0.21 | 704.73 ± 0.19 | 702.54 ± 0.15
298.15 K | 762.56 ± 0.81 | 746.27 ± 0.58 | 734.53 ± 0.44 | 725.55 ± 0.37 | 720.68 ± 0.29 | 712.52 ± 0.27 | 707.81 ± 0.23 | 704.12 ± 0.21 | 700.59 ± 0.19 | 698.49 ± 0.15
303.15 K | 758.23 ± 0.81 | 741.94 ± 0.58 | 730.2 ± 0.44 | 721.22 ± 0.37 | 716.37 ± 0.29 | 708.23 ± 0.27 | 703.55 ± 0.23 | 699.9 ± 0.21 | 696.43 ± 0.19 | 694.44 ± 0.16
308.15 K | 753.87 ± 0.81 | 737.57 ± 0.58 | 725.83 ± 0.44 | 716.86 ± 0.37 | 712.02 ± 0.29 | 703.91 ± 0.27 | 699.27 ± 0.23 | 695.65 ± 0.21 | 692.24 ± 0.19 | 690.37 ± 0.16
313.15 K | 749.47 ± 0.81 | 733.15 ± 0.58 | 721.42 ± 0.44 | 712.46 ± 0.37 | 707.63 ± 0.29 | 699.56 ± 0.27 | 694.94 ± 0.23 | 691.37 ± 0.21 | 688.03 ± 0.19 | 686.29 ± 0.16
318.15 K | 745.03 ± 0.81 | 728.69 ± 0.58 | 716.96 ± 0.44 | 708 ± 0.37 | 703.19 ± 0.29 | 695.15 ± 0.27 | 690.58 ± 0.23 | 687.05 ± 0.21 | 683.78 ± 0.19 | 682.19 ± 0.16
323.15 K | 740.54 ± 0.82 | 724.18 ± 0.58 | 712.45 ± 0.44 | 703.5 ± 0.36 | 698.69 ± 0.3 | 690.7 ± 0.27 | 686.17 ± 0.23 | 682.7 ± 0.21 | 679.51 ± 0.18 | 678.08 ± 0.16

CCCCCO [pentan-1-ol]
[1]
Conditions | mass density [kg/m3] | viscosity [mPa·s]
293.15 K | 814.59 ± 0.11 | 4.042 ± 0.022
298.15 K | 810.93 ± 0.12 | 3.518 ± 0.02
303.15 K | 807.24 ± 0.12 | 3.06 ± 0.018
308.15 K | 803.53 ± 0.12 | 2.659 ± 0.016
313.15 K | 799.79 ± 0.12 | 2.334 ± 0.015
318.15 K | 796.03 ± 0.12 | 2.042 ± 0.013
323.15 K | 792.23 ± 0.12 | 1.805 ± 0.013

CCCO [propan-1-ol]
[1]
Conditions | mass density [kg/m3] | viscosity [mPa·s]
293.15 K | 803.84 ± 0.12 | 2.21 ± 0.014
298.15 K | 799.85 ± 0.12 | 1.962 ± 0.013
303.15 K | 795.81 ± 0.12 | 1.746 ± 0.012
308.15 K | 791.74 ± 0.12 | 1.556 ± 0.012
313.15 K | 787.64 ± 0.13 | 1.386 ± 0.011
318.15 K | 783.55 ± 0.13 | 1.242 ± 0.011
323.15 K | 779.32 ± 0.13 | 1.115 ± 0.01

CCCO [propan-1-ol] + CCCCCCCC
[2], x2 = 0
Conditions | mass density [kg/m3] | viscosity [mPa·s]
293.15 K | 803.84 ± 0.12 | 2.21 ± 0.014
298.15 K | 799.85 ± 0.12 | 1.962 ± 0.013
303.15 K | 795.81 ± 0.12 | 1.746 ± 0.012
308.15 K | 791.74 ± 0.12 | 1.556 ± 0.012
313.15 K | 787.64 ± 0.13 | 1.386 ± 0.011
318.15 K | 783.55 ± 0.13 | 1.242 ± 0.011
323.15 K | 779.32 ± 0.13 | 1.115 ± 0.01
